# Data as given in patent US12623942B2, “Method for extracting salts and temperature- regenerated extracting composition” (ADIONICS, priority 2016, dated 2026).
# Legend:
# [1] = Regeneration (back-extraction) of the extracting composition charged with CaCl2
# Method: Two samples of the extracting composition of example 4 with the highest content of CaCl2 at 20° C. were contacted with a saline water at 1 Mol/L of CaCl2 at room temperature to increase the salt charging level of the dissolved CEM2 cation extracting molecules, and thus to get close to their salt saturation level (0.1 Mol/L). Then, these two samples were contacted with an iso-volume of distilled water at 20° C. and stirred. One of the two diphasic samples was then heated up to 80° C. and kept under stirring. The initial salt charging level being assessed at 80 mMol/L, it appears that the latter drops to 15.27 mMol/L from the first regeneration step at 80° C. whereas, during regeneration at 20° C., the salt residual concentration is 29.3 mMol/L. FIG. 4 illustrates the results obtained throughout several serial steps of contacting the hydrophobic organic liquid phase charged with salts with an iso-volume of distilled water. […] In use, this advantage seems to be even more significant when a resin with a high CEM content, and thus a high salt content, is implemented.
# [2] = Liquid-liquid extraction of mono-salt saline solution
# From the text: The extracting composition is obtained by solubilizing an amount of CEM and ASM in the selected fluidizing agent, dichloromethane CH2Cl2, dichlorobenzene or dichlorotoluene or any other fluidizing agent able to well solubilize the mixture CEM/ASM in order to obtain the searched final concentrations after solubilizing CEMs and ASMs in a minimum of 3 milliliters of fluidizing agent. If the selected fluidizing agent is also an ASM compound, so the selected ASM volume is at least 3 milliliters. The given concentrations of ASM2 and ASM9 are related to the added fluidizing agent volume and the concentrations of CEM are related to the added fluidizing agent+ASM volume. The extracting organic composition is then lightly heated so as to promote the solubilization of the organic compounds by means of a heat gun (temperature around 50 to 60° C.) for a few seconds (10 to 30 seconds) until a clear solution is obtained. The composition is thus left for 24 hours at room temperature so as to make sure that the obtained formulation is stable.
# These sealed formulations are then orbitally stirred at 500 revolutions/minute for two hours after adding an equivalent volume of water which was distilled twice so as to allow a water saturation of the whole formulation and a pH control at the inlet and at the outlet (pH close to 7, or at least maintained after contact with the saturation water).
# 3 mL of the prepared extracting organic composition are then taken from the lower phase of the decanted diphasic mixture and transferred to a vial containing 3 mL of the water containing the one or more considered chloride salts (NaCl or others), then the vial is sealed and orbitally stirred (at 500 revolutions per minute) for 2 hours at room temperature (RT), that is to say between 20 and 25° C.
# A verification is made to make sure that droplets in the range of 1-2 mm are really present during these stirrings in order to be sure that an equilibrium in the distribution of the considered chloride salt (NaCl or other) is achieved between both liquid phases at the end of stirring. The aspect of the organic and aqueous phases is clear and colorless or slightly turbid.
# Once the 2-hour stirring is carried out, the stirring is stopped and the whole is left for decantation for about 10 minutes, at least until both phases are completely separated, at the temperature of the assay. Then, the upper aqueous phase is taken then stirred and diluted in order to analyze its salinity by a ion chromatography (a Metrohm™ device including a cation analyzing column and an anion analyzing column suitable for the ions and for the concentration of the salts which are searched for). Likewise, the chloride salt (NaCl or other) initial aqueous solution is also analyzed by this ion chromatography to determine its cation and chloride molar relative concentration before the extraction. All the extractions and analyses were duplicated.
# The considered extracting composition comprises 0.1 mol/L of CEM1 and 3.52 mol/L of ASM2 in dichloromethane CH2Cl2, which was obtained as described above. The initial concentration of the considered salt in water, whether it is LiCl, NaCl, KCl, MgCl2, CaCl2, SrCl2 or BaCl2, is 0.1 mol/L.
# After carrying out these 7 specific extractions (duplicated) of salts, the amounts of extracted cations in relative molar percentage before and after extraction at room temperature and at water/extracting formulation iso-volume are indicated in table I: […]
# [3] = Selective extraction from a mixture of NaCl, CaCl2, SrCl2 and BaCl2; settings: 0.1 Mol/L CEM2 in ASM2/ASM1 60/40 by volume, RT
# Method: A brine containing a mixture of NaCl, CaCl2, SrCl2 and BaCl2 is made as described above. The dissolved salt concentrations are indicated in table VIII in mMol/L. The extraction was carried out a second time with changed divalent salt concentrations.
# The extracting composition consists of 0.1 Mol/L of CEM2 and of a mixture of two ASMs. This mixture is composed of ASM2 which is usually referred to as [3,5-Bis(Trifluoromethyl)benzyl Alcohol] (35TFMBnOH) of CAS #: 32707-89-4, up to 60% by volume, and of ASM1, referred to as [3-(Trifluoromethyl)benzyl Alcohol](3TFMBnOH), of molecular formula C8H7F3O of MW=176.14 g/Mol and of CAS #: 349-75-7, up to 40% by volume, both serving as a fluidizing agent and as an ASM given its liquid form.
# The extraction is carried out as described in example 1 and at room temperature.
# [4] = 0.1M CEM + 3.52M ASM2 in CH2Cl2, initial salt 0.1 mol/L, Org./Water = 1, molar %
structure (smiles),measurement,setting,value
"CCN(CC)C(=O)COc1c2cc(C(C)(C)C)cc1Cc1cc(C(C)(C)C)cc(c1OCC(=O)N(CC)CC)Cc1cc(C(C)(C)C)cc(c1OCC(=O)N(CC)CC)Cc1cc(C(C)(C)C)cc(c1OCC(=O)N(CC)CC)Cc1cc(C(C)(C)C)cc(c1OCC(=O)N(CC)CC)Cc1cc(C(C)(C)C)cc(c1OCC(=O)N(CC)CC)C2 [CEM2, 4-tert-butyl-Calix[6]arene hexakis(N,N-diethylacetamide)]",Salt residual concentration after regeneration,"[1]; 0.1 Mol/L CEM2 + 1 Mol/L ASM9 in 1,2-dichlorobenzene, initial charge 80 mMol/L CaCl2, iso-volume distilled water, 20° C.",29.3 mmol/L
same,Salt charging level after the first regeneration step,"[1]; 0.1 Mol/L CEM2 + 1 Mol/L ASM9 in 1,2-dichlorobenzene, initial charge 80 mMol/L CaCl2, iso-volume distilled water, 80° C.",15.27 mmol/L
same,"Reduction in the number of necessary regeneration steps, hot regeneration","[1]; 80° C. versus 20° C., same CaCl2 overall back-extraction rate",2 fold
same,"Extraction rate at room temperature (RT), BaCl2",[2]; [4],63.2%
same,"Extraction rate at room temperature (RT), CaCl2",[2]; [4],57.8%
same,"Extraction rate at room temperature (RT), KCl",[2]; [4],25.4%
same,"Extraction rate at room temperature (RT), LiCl",[2]; [4],21.9%
same,"Extraction rate at room temperature (RT), MgCl2",[2]; [4],13.5%
same,"Extraction rate at room temperature (RT), NaCl",[2]; [4],22.7%
same,"Extraction rate at room temperature (RT), SrCl2",[2]; [4],63.8%
same,Calcium to sodium extraction rate,[2]; solutions containing only one of these salts (example 3),2.54
same,Final Concentration Sr^2+,"[3]; Table IX, initial 9.17",0 mmol/L
same,% extraction Sr^2+,"[3]; Table IX, initial 9.17 mMol/L",100%
same,Final Concentration Ca^2+,"[3]; Table IX, initial 9.25",0 mmol/L
same,% extraction Ca^2+,"[3]; Table IX, initial 9.25 mMol/L",100%
same,Final Concentration Ba^2+,"[3]; Table IX, initial 9.32",0 mmol/L
same,% extraction Ba^2+,"[3]; Table IX, initial 9.32 mMol/L",100%
same,Final Concentration Na^+,"[3]; Table IX, initial 196.04",195.9835 mmol/L
same,% extraction Na^+,"[3]; Table IX, initial 196.04 mMol/L",0%
same,ANIONS Cl− Final Concentration,"[3]; Table IX, initial 245.4",203.16 mmol/L
same,Final Concentration Sr^2+,"[3]; Table VIII, initial 4.29",0 mmol/L
same,% extraction Sr^2+,"[3]; Table VIII, initial 4.29 mMol/L",100%
same,Final Concentration Ba^2+,"[3]; Table VIII, initial 4.69",0 mmol/L
same,% extraction Ba^2+,"[3]; Table VIII, initial 4.69 mMol/L",100%
same,Final Concentration Ca^2+,"[3]; Table VIII, initial 29.13",0.4916 mmol/L
same,% extraction Ca^2+,"[3]; Table VIII, initial 29.13 mMol/L",98%
same,Final Concentration Na^+,"[3]; Table VIII, initial 193.52",199.4775 mmol/L
same,% extraction Na^+,"[3]; Table VIII, initial 193.52 mMol/L",0%
same,ANIONS Cl− Final Concentration,"[3]; Table VIII, initial 257.74",213.38 mmol/L
